This is an account of results in patent US10357481B2 (MERCK SHARP & DOHME CORP., priority 2015, dated 2019).

Structures are written as SMILES.

This assay concerns the target T1, human PDE2A1 (Homo sapiens, UniProt O00408).
T1 construct: GST; purchased BPS Bioscience (San Diego, Calif.) 60020; host or cells: insect cells
In words: IMAP FP PDE selectivity panel, human PDE2A1. Format: biochemical. The settings on record: Lab B; read-out: Human PDE2 Ki (nM) Lab B. The method, then: Selectivity for PDE2, as compared to other PDE families, was assessed using the IMAP® technology. Human PDE10A2 enzyme was prepared from cytosolic fractions of transiently transfected HEK cells.
Assays for PDE 1 through 11 were performed in parallel at room temperature in 384-well microtiter plates with an incubation volume of 20.2 μL. Solutions of test compounds were prepared in DMSO and serially diluted with DMSO to yield 30 μL of each of ten solutions differing by 3-fold in concentration, at 32 serial dilutions per plate. […] A Labcyte POD 810 (Labcyte, Sunnyvale, Calif.) was used to dispense 200 nL from each well of the titration plate to make eleven copies of the assay plate for each titration, one copy for each PDE enzyme. A solution of each enzyme (dilution from aliquots, sufficient to produce 20% substrate conversion) and a separate solution of FAM-labeled cAMP or FAM-labeled cGMP from Molecular Devices (Sunnyvale, Calif., product # R7506 or cGMP#R7508), at a final concentration of 50 nM were made in the assay buffer (10 mM Tris HCl, pH 7.2, 10 mM MgCl2, 0.05% NaN3 0.01% Tween-20, and 1 mM DTT). Note that the substrate for PDE2 is 50 nM FAM cAMP containing 1000 nM of cGMP. The enzyme and the substrate were then added to the assay plates in two consecutive additions of 10 μL and then shaken to mix. The reaction was allowed to proceed at room temperature for 60 minutes. A binding solution was then made from the kit components, comprised of 80% Solution A, 20% Solution B and binding reagent at a volume of 1/600 the total binding solution. The enzymatic reaction was stopped by addition of 60 μL of the binding solution to each well of the assay plate. The plates were sealed and shaken for 10 seconds. The plates were incubated at room temperature for one hour, then the parallel and perpendicular fluorescence was measured using a Tecan Genios Pro plate reader (Tecan, Switzerland). […] The intrinsic PDE2 inhibitory activity of a compound which may be used in accordance with the present invention may be determined by these assays.

T1 sequence (O00408 1-920 isoform O00408-2): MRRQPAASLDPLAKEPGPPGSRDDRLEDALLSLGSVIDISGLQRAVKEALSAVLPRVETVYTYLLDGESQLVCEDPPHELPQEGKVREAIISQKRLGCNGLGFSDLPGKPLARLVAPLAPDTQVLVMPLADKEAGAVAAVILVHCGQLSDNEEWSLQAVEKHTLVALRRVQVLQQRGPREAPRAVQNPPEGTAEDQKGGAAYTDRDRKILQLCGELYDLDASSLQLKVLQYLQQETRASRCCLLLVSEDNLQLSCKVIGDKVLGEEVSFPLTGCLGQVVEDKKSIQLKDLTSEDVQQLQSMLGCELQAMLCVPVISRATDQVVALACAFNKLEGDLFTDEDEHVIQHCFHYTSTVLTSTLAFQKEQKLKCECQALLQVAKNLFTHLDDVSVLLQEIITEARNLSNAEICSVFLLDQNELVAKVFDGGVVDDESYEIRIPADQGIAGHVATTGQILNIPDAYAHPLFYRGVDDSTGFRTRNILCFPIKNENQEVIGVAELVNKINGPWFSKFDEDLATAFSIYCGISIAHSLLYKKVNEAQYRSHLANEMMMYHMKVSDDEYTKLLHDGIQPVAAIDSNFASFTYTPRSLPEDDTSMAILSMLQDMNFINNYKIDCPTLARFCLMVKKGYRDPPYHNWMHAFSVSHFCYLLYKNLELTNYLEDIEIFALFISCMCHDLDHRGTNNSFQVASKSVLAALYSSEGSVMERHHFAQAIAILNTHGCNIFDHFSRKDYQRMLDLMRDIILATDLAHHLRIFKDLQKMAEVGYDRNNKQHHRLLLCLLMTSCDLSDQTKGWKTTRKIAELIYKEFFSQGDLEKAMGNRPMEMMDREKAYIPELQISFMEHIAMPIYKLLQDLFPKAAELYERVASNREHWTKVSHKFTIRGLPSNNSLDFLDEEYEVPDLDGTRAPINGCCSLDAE

By Ki is commonly meant the equilibrium dissociation constant of an inhibitor or competing ligand from its target. As to `Fc1cc(C2(Nc3cc(C(F)(F)F)cc4ncnn34)CC2)ccc1C(F)(F)F` [Example 276, N-(1-(3-fluoro-4-(trifluoromethyl)phenyl)cyclopropyl)-7-(trifluoromethyl)-[1,2,4]triazolo[1,5-a]pyridin-5-amine], the Ki amounted to 68 nM.
Under `Cc1cc(NC2(c3ccc(C(F)(F)F)c(F)c3)CC2)n2nc(C3CC3)nc2n1` [Example 195, 2-Cyclopropyl-N-(1-(3-fluoro-4-(trifluoromethyl)phenyl)cyclopropyl)-5-methyl-[1,2,4]triazolo [1,5-a]pyrimidin-7-amine] stands 144 nM; under `CC[C@@H](Nc1cc(C)nc2ncnn12)c1ccc(SC(F)(F)F)cc1` [Example 17, 5-Methyl-N-[(1R)-1-{4-[(trifluoromethyl)sulfanyl]phenyl}propyl][1,2,4]triazolo[1,5-a] pyrimidin-7-amine], 15 nM; under `Cc1cc(NC(C)(C)c2ccc(OC(F)(F)F)cc2F)n2ncnc2n1` [Example 51, N-{1-[2-Fluoro-4-(trifluoromethoxy)phenyl]-1-methylethyl}-5-methyl [1,2,4]triazolo[1,5-a]pyrimidin-7-amine], 206 nM.
For the molecule `OCCCc1cc(NC2(c3ccc(C(F)(F)F)c(F)c3)CC2)n2ncnc2n1` [Example 245, 3-(7-((1-(3-Fluoro-4-(trifluoromethyl)phenyl)cyclopropyl)amino)-[1,2,4]triazo[1,5-a]pyrimidin-5-yl)propan-1-ol], the Ki worked out at 204 nM.
Consider `CC(C)(O)C(Nc1cc(C(F)(F)F)nc2ncnn12)c1ccc(OC(F)F)cc1` (single isomer, unassigned) [Example 165, (1S or R)-1-[4-(Difluoromethoxy)phenyl]-2-methyl-1-{[5-(trifluoromethyl) [1,2,4]triazolo [1,5-a]pyrimidin-7-yl]amino} propan-2-ol], for which the Ki amounted to 52 nM.
For the molecule `Cc1cc(NC(c2ccc(C(F)(F)F)cc2F)C(C)(C)O)n2ncnc2n1` (single isomer, unassigned) [Example 115, (1R or S)-1-[2-Fluoro-4-(trifluoromethyl)phenyl]-2-methyl-1-[(5-methyl [1,2,4]triazolo [1,5-a]pyrimidin-7-yl)amino] propan-2-ol], the Ki came out at 23 nM.
Take `Cc1cc(NC(c2cc3ccccc3n2C)C(C)(C)O)n2ncnc2n1` (single isomer, unassigned) [Example 125, (1R or S)-2-Methyl-1-(1-methyl-1H-indol-2-yl)-1-[(5-methyl [1,2,4]triazolo [1,5-a]pyrimidin-7-yl)amino] propan-2-ol]: the Ki is above 2960 nM.
The result for `Fc1cc(C2(Nc3cc(C(F)(F)C(F)(F)F)nc4ncnn34)CC2)ccc1C(F)(F)F` [Example 74, N-{1-[3-Fluoro-4-(trifluoromethyl)phenyl]cyclopropyl}-5-(pentafluoroethyl) [1,2,4]triazolo[1,5-a]pyrimidin-7-amine] reads 109 nM.
Under `Cc1cc(N[C@@H](c2ccc(OC(F)(F)F)c(Cl)c2)C(C)(C)O)n2ncnc2n1` [Example 102, (1S)-1-[3-Chloro-4-(trifluoromethoxy)phenyl]-2-methyl-1-[(5-methyl[1,2,4]triazolo[1,5-a]pyrimidin-7-yl)amino]propan-2-ol] stands 14 nM.
Turning to `CC(C)(O)C(Nc1cc(C(F)(F)F)nc2ncnn12)c1ccc(C(F)F)cc1` (single isomer, unassigned) [Example 163, (1S or R)-1-[4-(Difluoromethyl)phenyl]-2-methyl-1-{[5-(trifluoromethyl) [1,2,4]triazolo [1,5-a]pyrimidin-7-yl]amino} propan-2-ol], the Ki stood at 77 nM.
With `CC(C)(O)C(Nc1cc(C(F)(F)F)nc2ncnn12)c1ccc2c(c1)OC(F)(F)O2` (single isomer, unassigned) [Example 168, (1R or S)-1-(2,2-Difluoro-1,3-benzodioxol-5-yl)-2-methyl-1-{[5-(trifluoromethyl) [1,2,4]triazolo [1,5-a]pyrimidin-7-yl]amino} propan-2-ol], the Ki was above 2960 nM.
